Reference: ChEMBL document CHEMBL3407459, “Synthesis and antimicrobial activity of novel structural hybrids of benzofuroxan and benzothiazole derivatives” (2015)

Experiments:
[1] = system: Escherichia coli; experiment: Antibacterial activity against Escherichia coli MG1655 harboring pGrpE-lux assessed as maximum induction factor at 10^-11 M after 120 mins by luminometric analysis; format: functional, K-12 substr. MG1655
[2] = system: Escherichia coli; experiment: Antibacterial activity against Escherichia coli MG1655 harboring pIbpA-lux assessed as maximum induction factor at 10^-11 M after 120 mins by luminometric analysis; format: functional, K-12 substr. MG1655
[3] = system: Escherichia coli; experiment: Antibacterial activity against Escherichia coli MG1655 harboring pSoxS-lux assessed as maximum induction factor at 10^-12 M after 120 mins by luminometric analysis; format: functional, K-12 substr. MG1655
[4] = system: Escherichia coli; experiment: Antibacterial activity against Escherichia coli MG1655 harboring pSoxS-lux assessed as maximum induction factor at 10^-14 M after 120 mins by luminometric analysis; format: functional, K-12 substr. MG1655
[5] = system: Vibrio sp.; experiment: Antibacterial activity against Vibrio aqamarinus VKPM B-11245 assessed as toxicity index at 10^-4 M measured for 2 hrs by luminometric analysis; format: functional
[6] = system: Vibrio sp.; experiment: Antibacterial activity against Vibrio aqamarinus VKPM B-11245 assessed as toxicity index at 10^-8 M measured for 2 hrs by luminometric analysis; format: functional
[7] = system: Vibrio sp.; experiment: Antibacterial activity against Vibrio aqamarinus VKPM B-11245 assessed as toxicity index at 10^-9 M measured for 2 hrs by luminometric analysis; format: functional
[8] = system: Escherichia coli; experiment: Antibacterial activity against Escherichia coli MG1655 harboring pXen7 assessed as toxicity index at 10^-5 M measured for 2 hrs by luminometric analysis; format: functional, K-12 substr. MG1655
[9] = system: Escherichia coli; experiment: Antibacterial activity against Escherichia coli MG1655 harboring pXen7 assessed as toxicity index at 10^-8 M measured for 2 hrs by luminometric analysis; format: functional, K-12 substr. MG1655
[10] = system: Escherichia coli; experiment: Antibacterial activity against Escherichia coli MG1655 harboring pXen7 assessed as toxicity index at 10^-9 M measured for 2 hrs by luminometric analysis; format: functional, K-12 substr. MG1655
[11] = system: Escherichia coli; experiment: Antibacterial activity against Escherichia coli MG1655 harboring pXen7 assessed as toxicity index at 10^-12 M measured for 2 hrs by luminometric analysis; format: functional, K-12 substr. MG1655
[12] = system: Escherichia coli; experiment: Antibacterial activity against Escherichia coli MG1655 harboring pSoxS-lux assessed as maximum induction factor at 10^-3 M after 120 mins by luminometric analysis; format: functional, K-12 substr. MG1655
[13] = system: Escherichia coli; experiment: Antibacterial activity against Escherichia coli MG1655 harboring pColD-lux assessed as maximum induction factor at 10^-3 M after 120 mins by luminometric analysis; format: functional, K-12 substr. MG1655
[14] = system: Escherichia coli; experiment: Antibacterial activity against Escherichia coli MG1655 harboring pGrpE-lux assessed as maximum induction factor at 10^-3 M after 120 mins by luminometric analysis; format: functional, K-12 substr. MG1655
[15] = Activation of quorum sensing system luxR in Escherichia coli MG1655 harboring pVFR1-lux assessed as maximum induction factor at 10^-3 M after 120 mins by luminometric analysis; details: Escherichia coli str. K-12 substr. MG1655
[16] = system: Escherichia coli; experiment: Antibacterial activity against Escherichia coli MG1655 harboring pRecA-lux assessed as maximum induction factor at 10^-4 M after 120 mins by luminometric analysis; format: functional, K-12 substr. MG1655
[17] = system: Escherichia coli; experiment: Antibacterial activity against Escherichia coli MG1655 harboring pColD-lux assessed as maximum induction factor at 10^-4 M after 120 mins by luminometric analysis; format: functional, K-12 substr. MG1655
[18] = system: Escherichia coli; experiment: Antibacterial activity against Escherichia coli MG1655 harboring pGrpE-lux assessed as maximum induction factor at 10^-4 M after 120 mins by luminometric analysis; format: functional, K-12 substr. MG1655
[19] = system: Escherichia coli; experiment: Antibacterial activity against Escherichia coli MG1655 harboring pIbpA-lux assessed as maximum induction factor at 10^-4 M after 120 mins by luminometric analysis; format: functional, K-12 substr. MG1655
[20] = system: Escherichia coli; experiment: Antibacterial activity against Escherichia coli MG1655 harboring pColD-lux assessed as maximum induction factor at 10^-5 M after 120 mins by luminometric analysis; format: functional, K-12 substr. MG1655
[21] = system: Escherichia coli; experiment: Antibacterial activity against Escherichia coli MG1655 harboring pIbpA-lux assessed as maximum induction factor at 10^-5 M after 120 mins by luminometric analysis; format: functional, K-12 substr. MG1655
[22] = system: Escherichia coli; experiment: Antibacterial activity against Escherichia coli MG1655 harboring pRecA-lux assessed as maximum induction factor at 10^-6 M after 120 mins by luminometric analysis; format: functional, K-12 substr. MG1655
[23] = system: Escherichia coli; experiment: Antibacterial activity against Escherichia coli MG1655 harboring pColD-lux assessed as maximum induction factor at 10^-6 M after 120 mins by luminometric analysis; format: functional, K-12 substr. MG1655
[24] = Activation of quorum sensing system luxR in Escherichia coli MG1655 harboring pVFR1-lux assessed as maximum induction factor at 10^-6 M after 120 mins by luminometric analysis; details: Escherichia coli str. K-12 substr. MG1655
[25] = system: Escherichia coli; experiment: Antibacterial activity against Escherichia coli MG1655 harboring pGrpE-lux assessed as maximum induction factor at 10^-7 M after 120 mins by luminometric analysis; format: functional, K-12 substr. MG1655
[26] = system: Escherichia coli; experiment: Antibacterial activity against Escherichia coli MG1655 harboring pKatG-lux assessed as maximum induction factor at 10^-8 M after 120 mins by luminometric analysis; format: functional, K-12 substr. MG1655
[27] = system: Escherichia coli; experiment: Antibacterial activity against Escherichia coli MG1655 harboring pRecA-lux assessed as maximum induction factor at 10^-8 M after 120 mins by luminometric analysis; format: functional, K-12 substr. MG1655
[28] = system: Escherichia coli; experiment: Antibacterial activity against Escherichia coli MG1655 harboring pColD-lux assessed as maximum induction factor at 10^-8 M after 120 mins by luminometric analysis; format: functional, K-12 substr. MG1655
[29] = system: Escherichia coli; experiment: Antibacterial activity against Escherichia coli MG1655 harboring pRecA-lux assessed as maximum induction factor at 10^-10 M after 120 mins by luminometric analysis; format: functional, K-12 substr. MG1655

## O=[N+]([O-])c1cc([N+](=O)[O-])c2no[n+]([O-])c2c1Sc1nc2ccccc2s1
[1]
  Activity: 1.05
[2]
  Activity: 1.47
[3]
  Activity: 1.41
[4]
  Activity: 1.2
[5]
  Activity: 99.1
[6]
  Activity: 5.97
[7]
  Activity: 0
[8]
  Activity: 33.59
[9]
  Activity: 7.28
[10]
  Activity: 0
[11]
  Activity: 10.52
[12]
  Activity: 1.8
[13]
  Activity: 0.08
[14]
  Activity: 0.35
[15]
  Activity: 1.68
[16]
  Activity: 0.85
[17]
  Activity: 1.48
[18]
  Activity: 0.51
[19]
  Activity: 0.63
[20]
  Activity: 0.87
[21]
  Activity: 1.08
[22]
  Activity: 0.92
[23]
  Activity: 1.04
[24]
  Activity: 3.03
[25]
  Activity: 1.02
[26]
  Activity: 0.84
[27]
  Activity: 0.99
[28]
  Activity: 1.08
[29]
  Activity: 1
